Results reported in ChEMBL document CHEMBL5236551, “Andrographolide and its derivatives: Current achievements and future perspectives” (Eur J Med Chem, 2021).
Values after ≈ are worked out from the molar mass of the structure shown.

Tests used:
Pseudomonas aeruginosa [1] = test: Antibiofilm activity against Pseudomonas aeruginosa MTCC 7814 assessed as inhibition of biofilm formation at 0.1 mM in presence of azithromycin or gentamicin incubated for 48 hrs relative to control; assay type: functional; details: MTCC 7814, 48 h
Mus musculus = test: Anti-inflammatory activity against dimethylbenzene-induced auricular edema Kunming mouse model assessed as inhibition of ear edema at 1.35 mmol/Kg, po administered once daily via gavage for 3 days relative to control; assay type: functional; details: 72 h, time 3 day
Rattus norvegicus [2] = test: Anti-inflammatory activity against egg albumin-induced paw edema in Sprague-Dawley rat assessed as inhibition of paw edema at 0.90 mmol/Kg, po preadministered once daily via gavage for 3 days followed by egg albumin addition measured at 120 min by plethysmometric analysis relative to control; assay type: functional; details: 72 h, at 0.9 mmol/kg, time 3 day
[3] = Inhibition of TGF-beta1 induced mesenchymal transformation in human A549 cells assessed as inhibition rate at 1.25 uM relative to control; assay type: functional
[4] = Antimigratory activity against human LX2 cells assessed as inhibition rate at 5 uM relative to control; assay type: functional; details: LX-2
[5] = Antimigratory activity against Ang II-induced human Cardiac fibroblast cells assessed as inhibition rate at 0.16 uM relative to control; assay type: functional
MCF7 [6] = test: Antiproliferative activity against human MCF7 cells assessed as cell growth inhibition incubated for 72 hrs by CCK8 assay; assay type: functional, cell-based; details: MCF7, 72 h
HCT-116 [7] = test: Antiproliferative activity against human HCT-116 cells assessed as cell growth inhibition incubated for 72 hrs by CCK8 assay; assay type: functional, cell-based; details: HCT-116, 72 h
[8] = system: Human immunodeficiency virus 1; test: Antiviral activity against HIV-1 infected in human C8166 cells; assay type: functional, organism-based; details: Human immunodeficiency virus 1, C8166
Rattus norvegicus [9] = test: Anti-inflammatory activity against egg white-induced paw edema in rat model assessed as detumescence rate measured after 6 hrs relative to control; assay type: functional
Klebsiella aerogenes = test: Antibacterial activity against Klebsiella aerogenes assessed as bacterial growth inhibition by agar dilution method; assay type: functional
Pseudomonas aeruginosa [10] = test: Antibacterial activity against Pseudomonas aeruginosa assessed as bacterial growth inhibition by agar dilution method; assay type: functional
MCF7 [11] = test: Cytotoxicity against human MCF7 cells assessed as cell growth inhibition after 48 hrs by SRB assay; assay type: functional, cell-based; details: MCF7, 48 h
UACC-62 = test: Cytotoxicity against human UACC-62 cells assessed as cell growth inhibition after 48 hrs by SRB assay; assay type: functional, cell-based; details: UACC-62, 48 h
NCI-H522 = test: Cytotoxicity against human NCI-H522 cells assessed as cell growth inhibition after 48 hrs by SRB assay; assay type: functional, cell-based; details: NCI-H522, 48 h
PC-3 = test: Cytotoxicity against human PC-3 cells assessed as cell growth inhibition after 48 hrs by SRB assay; assay type: functional, cell-based; details: PC-3, 48 h
SW-620 = test: Cytotoxicity against human SW620 cells assessed as cell growth inhibition after 48 hrs by SRB assay; assay type: functional, cell-based; details: SW-620, 48 h
DU-145 = test: Cytotoxicity against human DU-145 cells assessed as cell growth inhibition after 48 hrs by SRB assay; assay type: functional, cell-based; details: DU-145, 48 h
HT-29 = test: Cytotoxicity against human HT-29 cells assessed as cell growth inhibition after 48 hrs by SRB assay; assay type: functional, cell-based; details: HT-29, 48 h
OVCAR-8 = test: Cytotoxicity against human OVCAR-8 cells assessed as cell growth inhibition after 48 hrs by SRB assay; assay type: functional, cell-based; details: OVCAR-8, 48 h
NCI/ADR-RES = test: Cytotoxicity against human MCF7/ADR cells assessed as cell growth inhibition after 48 hrs by SRB assay; assay type: functional, cell-based
HCT-116 [12] = test: Antiproliferative activity against human HCT-116 cells assessed as cell growth inhibition measured after 48 hrs by MTT assay; assay type: functional, cell-based; details: HCT-116, 48 h
Rattus norvegicus [13] = organism: Rattus norvegicus; test: Antiplatelet activity against collagen-induced Sprague-Dawley rat platelet aggregation assessed as inhibition of platelet aggregation preincubated for 2 mins followed by collagen addition by turbidimetric method; assay type: functional; details: Arterial blood
Rattus norvegicus [14] = organism: Rattus norvegicus; test: Antiplatelet activity against arachidonic acid-induced Sprague-Dawley rat platelet aggregation assessed as inhibition of platelet aggregation preincubated for 2 mins followed by arachidonic acid addition by turbidimetric method; assay type: functional; details: Arterial blood
Rattus norvegicus [15] = organism: Rattus norvegicus; test: Antiplatelet activity against thrombin-induced Sprague-Dawley rat platelet aggregation assessed as inhibition of platelet aggregation preincubated for 2 mins followed by thrombin addition by turbidimetric method; assay type: functional; details: Arterial blood

C=C1CCC2[C@](C)(CO)[C@H](O)CC[C@@]2(C)[C@@H]1/C=C/C1=CCOC1=O (stereo partly drawn)
inhibition at 100 µM (Pseudomonas aeruginosa [1]): 92%

C=C1CC[C@@H]2[C@](C)(COC(=O)c3cccnc3)[C@H](OC(=O)c3cccnc3)CC[C@@]2(C)[C@@H]1/C=C/C1=CC(=C/c2ccc(Cl)cc2)/OC1=O
inhibition in vivo at 1350 µmol/kg (Mus musculus): 79.4%
inhibition in vivo at 900 µmol/kg (Rattus norvegicus [2]): 50.4%

C=C1CCC2[C@](C)(C=O)c3nc(N)sc3C[C@@]2(C)[C@@H]1/C=C/C1=CCOC1=O (stereo partly drawn)
inhibition at 1.25 µM [3]: > 65%
inhibition at 5 µM [4]: > 20%

C=C1CCC2[C@](C)(CO)NC(=O)CC[C@@]2(C)[C@@H]1/C=C/C1=CCOC1=O (stereo partly drawn)
inhibition at 0.16 µM [5]: > 95%
inhibition at 1.25 µM [3]: > 60%
inhibition at 5 µM [4]: > 40%

C=C1CC[C@H]2[C@@](C)(C=CC(=O)[C@@]2(C)COC(=O)c2ccccc2)[C@@H]1C/C=C1/C(=O)OC[C@H]1O
IC50 (MCF7 [6]): 7.8 µM
IC50 (HCT-116 [7]): 2.49 µM

C=C1CCC2[C@](C)(CO)[C@H](O)CC[C@@]2(C)[C@@H]1CCC1C(=O)N(C)C[C@H]1O (stereo partly drawn)
IC50 [8]: 4.1 µM

C[C@@]12CCC3[C@](C)(COC(=O)CCC(=O)O)[C@H](OC(=O)CCC(=O)O)CC[C@@]3(C)[C@@H]1CC(C1=CCOC1=O)O2 (stereo partly drawn)
inhibition (INH) (Rattus norvegicus [9]): 93.18%

C=C1CCC2[C@](C)(CO)[C@H](O)CC[C@@]2(C)[C@@H]1C/C=C(/C(=O)OCC)[C@H](O)CO (stereo partly drawn)
MIC (Klebsiella aerogenes): 18.9 µg/mL (≈ 47.7 µM)
MIC (Pseudomonas aeruginosa [10]): 18.9 µg/mL (≈ 47.7 µM)

C=C1CCC2[C@](C)(CO)[C@H](O)CC[C@@]2(C)[C@@H]1C/C=C/c1ccc(F)cc1 (stereo partly drawn)
IC50 (MCF7 [11]): 14 µM
IC50 (UACC-62): 17 µM
IC50 (NCI-H522): 3 µM
IC50 (PC-3): 14 µM
IC50 (SW-620): 20 µM
IC50 (DU-145): 7 µM
IC50 (HT-29): 16 µM
IC50 (OVCAR-8): 2 µM
IC50 (NCI/ADR-RES): 4 µM

C=C1CC[C@@H]2[C@](C)(COC(C)=O)[C@H](OC(C)=O)CC[C@@]2(C)[C@@H]1CC(Nc1ccccc1SC)C1=CCOC1=O (stereo partly drawn)
IC50 (HCT-116 [12]): 5.8 µM

C=C1CCC2[C@](C)(COC(=O)CCC(=O)O)[C@H](OC(=O)CCC(=O)O)CC[C@@]2(C)[C@@H]1/C=C/c1cc(=O)oc2cc(OC(C)=O)ccc12 (stereo partly drawn)
IC50 (Rattus norvegicus [13]): 0.5 µM
IC50 (Rattus norvegicus [14]): 0.48 µM
IC50 (Rattus norvegicus [15]): 0.36 µM

C=C1CCC2[C@](C)(COC(=O)Cc3cccc4ccccc34)[C@H](OC(=O)c3cccnc3)CC[C@@]2(C)[C@@H]1/C=C/C1=CCOC1=O (stereo partly drawn)
IC50 [8]: 9.69 µM
